Measured values taken from patent US20050197350A1, “Novel quinoline, tetrahydroquinazoline, and pyrimidine derivatives and methods of treatment related to the use thereof” (TAISHO PHARMACEUTICAL CO., LTD., priority 2003, published 2005).
Like-named read-outs stand apart in the source and are kept apart here.

Test system: MCH receptors
Assay: MCH receptor activity class (method not given)
[1] = class by percent of control at 10^-7 M or IC50
[2] = MCH receptor, class by percent of control at 10^-7 M or IC50
[3] = MCH receptor activity class 1-3 (percent of control at 10^-7 M or IC50)
[4] = class 1-3 by percent of control at 10^-7 M or IC50
[5] = class by percent of control at 10^−7 M or IC50

SMILES | class [1] | also measured
CN(C)c1cc(N[C@H]2CC[C@@H](NC(=O)C(CC(=O)c3ccc(C(C)(C)C)cc3)c3cn(C)c4ccccc34)CC2)nc2ccccc12 (relative stereo) [compound 721] | 3 (Class 3 The value of percent of control at 10^−7 M was more than 60% or the value of IC50 was more than 200 nM.) | –
CN(C)c1nc(N[C@H]2CC[C@@H](CNC(=O)Cc3ccccc3)CC2)nc2c1CCCC2 [compound 607] | 3 (Class 3 The value of percent of control at 10^−7 M was more than 60% or the value of IC50 was more than 200 nM.) | –
CN(C)c1cc(N[C@H]2CC[C@@H](NC(=O)/C=C/c3ccccc3)CC2)nc2ccccc12 [compound 26] | – | class [2]: 3 (Class 3 The value of percent of control at 10^−7 M was more than 60% or the value of IC50 was more than 200 nM.)
Cc1cccc(C(=O)NC[C@H]2CC[C@@H](Nc3nccc(N(C)C)n3)CC2)c1 [compound 395] | 3 (Class 3 The value of percent of control at 10^−7 M was more than 60% or the value of IC50 was more than 200 nM.) | –
Cc1ccc(NC(=S)N[C@H]2CC[C@@H](Nc3nc4c(c(N(C)C)n3)CCCC4)CC2)c(C)c1 [compound 1756] | 2 (Class 2: The value of percent of control at 10^−7 M was from 40% to 60% or the value of IC′50 was from 50 nM to 200 nM.) | –
CN(C)c1cc(N[C@H]2CC[C@@H](CNC(=O)Nc3cc(F)cc(F)c3)CC2)nc2ccccc12 [compound 2403] | – | class [3]: 3 (Class 3 The value of percent of control at 10^−7 M was more than 60% or the value of IC50 was more than 200 nM.)
CN(C)c1ccnc(N[C@H]2CC[C@@H](CNC(=O)c3ccc(F)c(Cl)c3)CC2)n1 [compound 418] | – | class [4]: 3 (Class 3 The value of percent of control at 10^−7 M was more than 60% or the value of IC50 was more than 200 nM.)
CN(C)c1cc(N[C@H]2CC[C@@H](NC(=O)Nc3ccc(F)cc3F)CC2)nc2ccccc12 [compound 2091] | 3 (Class 3 The value of percent of control at 10^−7 M was more than 60% or the value of IC50 was more than 200 nM.) | –
COc1ccc(OC)c(CC(=O)NC[C@H]2CC[C@@H](Nc3cc(N(C)C)c4ccccc4n3)CC2)c1 [compound 162] | – | class [2]: 3 (Class 3 The value of percent of control at 10^−7 M was more than 60% or the value of IC50 was more than 200 nM.)
CN(C)c1cc(N[C@H]2CC[C@@H](NC(=O)c3ccc([N+](=O)[O-])cc3F)CC2)nc2ccccc12 [compound 773] | 3 (Class 3 The value of percent of control at 10^−7 M was more than 60% or the value of IC50 was more than 200 nM.) | –
Cc1ccc(C(=O)N[C@H]2CC[C@@H](Nc3cc(C)c4ccccc4n3)CC2)cc1 [Example 2544, 4-methyl-N-{cis-4-[(4-methylquinolin-2-yl)amino]cyclohexyl}benzamide] | – | class: 1
CN(C)c1nc(N[C@H]2CC[C@@H](NC(=O)c3ccc(Cl)cc3)CC2)nc2c1CCCC2 [compound 461] | – | class [4]: 1 (Class 1: The value of percent of control at 10^−7 M was less than 40% or the value of IC50 was less than 50 nM.)
Cc1cnc(N[C@H]2CC[C@@H](NCc3cccc(OC(F)(F)F)c3)CC2)nc1N(C)C [compound 3004] | – | class [5]: 3 (Class 3 The value of percent of control at 10^−7 M was more than 60% or the value of IC50 was more than 200 nM.)
COc1cc(NC(=S)N[C@H]2CC[C@@H](Nc3nc4c(c(N(C)C)n3)CCCC4)CC2)cc(OC)c1OC [compound 1745] | 1 (Class 1: The value of percent of control at 10^−7 M was less than 40% or the value of IC50 was less than 50 nM.) | –
CN(C)c1nc(N[C@H]2CC[C@@H](NC(=S)Nc3cccc(I)c3)CC2)nc2c1CCCC2 [compound 1985] | – | class [2]: 3 (Class 3 The value of percent of control at 10^−7 M was more than 60% or the value of IC50 was more than 200 nM.)
CN(C)c1nc(N[C@H]2CC[C@@H](NC(=O)Nc3ccccc3Oc3ccccc3)CC2)nc2c1CCCC2 [compound 1864] | 3 (Class 3 The value of percent of control at 10^−7 M was more than 60% or the value of IC50 was more than 200 nM.) | –
CN(C)c1ccnc(N[C@H]2CC[C@@H](NC(=O)c3cccc(C#N)c3)CC2)n1 [compound 247] | 3 (Class 3 The value of percent of control at 10^−7 M was more than 60% or the value of IC50 was more than 200 nM.) | –
Cc1cc(Cl)cc(Cl)c1NC(=S)N[C@H]1CC[C@@H](Nc2nc3c(c(N(C)C)n2)CCCC3)CC1 [compound 1781, N-(2,4-dichloro-6-methylphenyl)-N′-(cis-4-{[4-(dimethylamino)-5,6,7,8-tetrahydroquinazolin-2-yl]amino}cyclohexyl)thiourea] | 1 (Class 1: The value of percent of control at 10^−7 M was less than 40% or the value of IC50 was less than 50 nM.) | –
COc1ccc(NC(=S)N[C@H]2CC[C@@H](Nc3nccc(N(C)C)n3)CC2)cc1OC [compound 2266] | 2 (Class 2: The value of percent of control at 10^−7 M was from 40% to 60% or the value of IC′50 was from 50 nM to 200 nM.) | –

SMILES | class [1] | also measured
CCn1c2ccccc2c2cc(CNC[C@H]3CC[C@@H](Nc4nccc(N(C)C)n4)CC3)ccc21 [compound 1273] | 1 (Class 1: The value of percent of control at 10^−7 M was less than 40% or the value of IC50 was less than 50 nM.) | –
Cc1cc([N+](=O)[O-])ccc1NC(=O)N[C@H]1CC[C@@H](Nc2nc3c(c(N(C)C)n2)CCCC3)CC1 [compound 1714] | 3 (Class 3 The value of percent of control at 10^−7 M was more than 60% or the value of IC50 was more than 200 nM.) | –
C/C(=C\c1ccccc1)C(=O)N[C@H]1CC[C@@H](Nc2cc(N(C)C)c3ccccc3n2)CC1 [compound 87] | – | class [2]: 3 (Class 3 The value of percent of control at 10^−7 M was more than 60% or the value of IC50 was more than 200 nM.)
Cc1ccc([N+](=O)[O-])c(NC(=O)NC[C@H]2CC[C@@H](Nc3cc(N(C)C)c4ccccc4n3)CC2)c1C [compound 2397] | – | class [3]: 3 (Class 3 The value of percent of control at 10^−7 M was more than 60% or the value of IC50 was more than 200 nM.)
CN(C)c1cc(N[C@H]2CC[C@@H](CNC(=O)c3ccc(F)cc3)CC2)nc2ccccc12 [compound 164, N-[(cis-4-{[4-(dimethylamino)quinolin-2-yl]amino}cyclohexyl)methyl]-4-fluorobenzamide] | – | class [2]: 3 (Class 3 The value of percent of control at 10^−7 M was more than 60% or the value of IC50 was more than 200 nM.)
CN(C)c1ccnc(N[C@H]2CC[C@@H](CNC(=O)c3cc(F)ccc3Cl)CC2)n1 [compound 443] | – | class [4]: 3 (Class 3 The value of percent of control at 10^−7 M was more than 60% or the value of IC50 was more than 200 nM.)
CN(C)c1cc(N[C@H]2CC[C@@H](NC(=O)c3ccc4c(c3)OCO4)CC2)nc2ccccc12 [compound 47] | – | class [2]: 3 (Class 3 The value of percent of control at 10^−7 M was more than 60% or the value of IC50 was more than 200 nM.)
CN(C)c1ccnc(N[C@H]2CC[C@@H](CNCc3ccccc3OC(F)F)CC2)n1 [compound 1293] | 3 (Class 3 The value of percent of control at 10^−7 M was more than 60% or the value of IC50 was more than 200 nM.) | –
Cc1cnc(N[C@H]2CC[C@@H](C(=O)Nc3ccccc3Br)CC2)nc1N(C)C [compound 2789] | – | class [5]: 3 (Class 3 The value of percent of control at 10^−7 M was more than 60% or the value of IC50 was more than 200 nM.)
CN(C)c1nc(N[C@H]2CC[C@@H](CNCc3ccc(OCc4ccc(Br)cc4)cc3)CC2)nc2c1CCCC2 [compound 1445] | 3 (Class 3 The value of percent of control at 10^−7 M was more than 60% or the value of IC50 was more than 200 nM.) | –
COc1ccc(CC(=O)N[C@H]2CC[C@@H](Nc3nc4c(c(N(C)C)n3)CCCC4)CC2)cc1OC [compound 559] | – | class [4]: 3 (Class 3 The value of percent of control at 10^−7 M was more than 60% or the value of IC50 was more than 200 nM.)
Cc1cc(C(=O)N[C@H]2CC[C@@H](Nc3nccc(N(C)C)n3)CC2)ccc1[N+](=O)[O-] [compound 828, N-(cis-4-{[4-(dimethylamino)pyrimidin-2-yl]amino}cyclohexyl)-3-methyl-4-nitrobenzamide] | 2 (Class 2: The value of percent of control at 10^−7 M was from 40% to 60% or the value of IC′50 was from 50 nM to 200 nM.) | –
Cc1cc(N(C)C)nc(N[C@H]2CC[C@@H](CNC(=O)c3cc(Cl)cc(Cl)c3)CC2)n1 [compound 2766, 3,5-dichloro-N-[(cis-4-{[4-(dimethylamino)-6-methylpyrimidin-2-yl]amino}cyclohexyl)methyl]benzamide] | – | class [5]: 2 (Class 2: The value of percent of control at 10^−7 M was from 40% to 60% or the value of IC′50 was from 50 nM to 200 nM.)
CN(C)c1nc(N[C@H]2CC[C@@H](NC(=O)Nc3ccc(F)c(C(F)(F)F)c3)CC2)nc2c1CCCC2 [compound 1890] | 3 (Class 3 The value of percent of control at 10^−7 M was more than 60% or the value of IC50 was more than 200 nM.) | –
CN(C)c1ccnc(N[C@H]2CC[C@@H](NCCN(CCC#N)c3ccccc3)CC2)n1 [compound 1524] | – | class (activity class 1-3: percent of control at 10^-7 M or IC50): 3 (Class 3 The value of percent of control at 10^−7 M was more than 60% or the value of IC50 was more than 200 nM.)
CN(C)c1ccnc(N[C@H]2CC[C@@H](CNC(=O)Nc3cc(Cl)cc(Cl)c3)CC2)n1 [compound 2439] | – | class [3]: 2 (Class 2: The value of percent of control at 10^−7 M was from 40% to 60% or the value of IC′50 was from 50 nM to 200 nM.)
CN(C)c1ccnc(N[C@H]2CC[C@@H](CNC(=O)c3cccc([N+](=O)[O-])c3)CC2)n1 [compound 389] | 3 (Class 3 The value of percent of control at 10^−7 M was more than 60% or the value of IC50 was more than 200 nM.) | –
Cc1cc(Br)ccc1NC(=O)N[C@H]1CC[C@@H](Nc2nc3c(c(N(C)C)n2)CCCC3)CC1 [compound 1729, N-(4-bromo-2-methylphenyl)-N′-(cis-4-{[4-(dimethylamino)-5,6,7,8-tetrahydroquinazolin-2-yl]amino}cyclohexyl)urea] | 2 (Class 2: The value of percent of control at 10^−7 M was from 40% to 60% or the value of IC′50 was from 50 nM to 200 nM.) | –
Cc1nc(N[C@H]2CC[C@@H](NC(=O)c3cc(C(F)(F)F)cc(C(F)(F)F)c3)CC2)nc(N(C)C)c1C [compound 2841, N-(cis-4-{[4-(dimethylamino)-5,6-dimethylpyrimidin-2-yl]amino}cyclohexyl)-3,5-bis(trifluoromethyl)benzamide] | – | class [5]: 1 (Class 1: The value of percent of control at 10^−7 M was less than 40% or the value of IC50 was less than 50 nM.)
